Test results taken from ChEMBL document CHEMBL3856238, “Synthesis of novel nicotinohydrazide and (1,3,4-oxadiazol-2-yl)-6-(trifluoromethyl)pyridine derivatives as potential anticancer agents” (Bioorg Med Chem Lett, 2016).

Experiments:
Assay type in all cases: functional, cell-based
[1] = Cytotoxicity against human DU145 cells assessed as cell growth inhibition by MTT assay; details: DU-145
[2] = Cytotoxicity against human HepG2 cells assessed as cell growth inhibition by MTT assay
[3] = Cytotoxicity against human MDA-MB-231 cells assessed as cell growth inhibition by MTT assay
[4] = Cytotoxicity against human HeLa cells assessed as cell growth inhibition by MTT assay

Structure (SMILES)	IC50 [1] [µM]	IC50 [2] [µM]	IC50 [3] [µM]	IC50 [4] [µM]
COc1ccc(-c2nnc(-c3ccc(C(F)(F)F)nc3N)o2)cc1	10.7	11.2	13.5	14.8
CCc1nnc(-c2ccc(C(F)(F)F)nc2Nc2cc(OC)c(OC)c(OC)c2)o1	22.1	19.9	20.5	23.3
FC(F)(F)c1ccc(-c2nnc(-c3ccco3)o2)c(NCc2ccco2)n1	8.2	9.5	8.7	9.8
CCCc1nnc(-c2ccc(C(F)(F)F)nc2Nc2cccc(F)c2)o1	18.9	17.7	13.5	19.6
O=C(N/N=C/c1ccccc1)c1ccc(C(F)(F)F)nc1NCc1ccco1	30.5	32.2	26.6	31.4
CCc1nnc(-c2ccc(C(F)(F)F)nc2Nc2cccc(F)c2)o1	22.2	26.4	18.7	20.9
O=c1[nH]cc(F)c(=O)[nH]1 [FLUOROURACIL]	1.6	1.3	1.8	1.9
